# ChEMBL document CHEMBL5729101, “CaMKII inhibitors and uses thereof” (2022)
# Test: In Vitro CaMKIIδ Activity Assay: The inhibition of CaMKII activity was evaluated using a coupled assay measuring ADP released following ATP hydrolysis and phosphor-transfer to the peptide substrate AC3 (KKALHRQETVDAL; SEQ ID NO: 1) (1). A full length, C-terminal His/Gln tagged CaMKIIδ construct was used.
row,IC50,Structure (SMILES)
1,< 0.1 µM,NCCCOc1cccc(-c2ccnc3[nH]c4ccccc4c23)c1
2,< 0.1 µM,Cc1ccc2c(c1)[nH]c1nccc(-c3cccc(NCCN)c3)c12
3,in the range around 55 µM,C(=C\c1ccnc2[nH]c3ccccc3c12)/CN1CCNCC1
4,in the range around 55 µM,Clc1cncc(-c2ccnc3[nH]c4ccccc4c23)c1
5,in the range around 55 µM,c1ccc2c(c1)[nH]c1nccc(-c3cnc(N4CCNCC4)s3)c12
6,in the range around 55 µM,c1ccc2c(c1)[nH]c1nccc(-c3cnn(C4CCNCC4)c3)c12
7,< 0.1 µM,Cc1ccc2[nH]c3nccc(-c4cccc(NCCN)c4)c3c2c1
8,in the range around 55 µM,NCc1cccc(-c2ccnc3[nH]c4ccccc4c23)c1
9,in the range around 55 µM,Cc1nn(C2CCNCC2)cc1-c1ccnc2[nH]c3ccccc3c12
10,in the range around 55 µM,c1cc(-c2ccnc3[nH]c4ccccc4c23)cc(-n2ccnc2)c1
11,< 0.1 µM,c1cc(-c2ccnc3[nH]c4ccccc4c23)nc(N2CCNCC2)c1
12,< 0.1 µM,COc1ccc2c(c1)[nH]c1nccc(-c3cccc(NCCN)c3)c12
13,< 0.1 µM,NCCOc1cccc(-c2ccnc3[nH]c4ccccc4c23)c1
14,< 0.1 µM,NCCNc1cccc(-c2ccnc3[nH]c4ccccc4c23)c1
15,< 0.1 µM,NCCCNc1cccc(-c2ccnc3[nH]c4ccccc4c23)c1
16,in the range around 55 µM,c1ccc2c(c1)[nH]c1nccc(-n3cc(C4CCNCC4)nn3)c12
17,< 0.1 µM,NCCNc1cccc(-c2ccnc3[nH]c4ccc(Cl)cc4c23)c1
18,in the range around 55 µM,C(=C/c1ccnc2[nH]c3ccccc3c12)/CN1CCNCC1
19,in the range around 55 µM,Clc1cnccc1-c1ccnc2[nH]c3ccccc3c12
